Legend:
[1] = The drug is tested on Bifidobacterium breve strain: DSM20213 for biotransformation. The drug concentrations were measured before and after a 12-h incubation by liquid-chromatography-coupled mass spectrometry (LC–MS); details: 2 µM
[2] = The drug is tested on Eggerthella lenta strain: ATCC25559 for biotransformation. The drug concentrations were measured before and after a 12-h incubation by liquid-chromatography-coupled mass spectrometry (LC–MS); details: 2 µM
[3] = The drug is tested on Alistipes indistinctus strain: DSM22520 for biotransformation. The drug concentrations were measured before and after a 12-h incubation by liquid-chromatography-coupled mass spectrometry (LC–MS); details: 2 µM
[4] = The drug is tested on Bacteroides cellulosilyticus strain: DSM14838 for biotransformation. The drug concentrations were measured before and after a 12-h incubation by liquid-chromatography-coupled mass spectrometry (LC–MS); details: 2 µM
[5] = The drug is tested on Bacteroides fragilis strain: ATCC43859 for biotransformation. The drug concentrations were measured before and after a 12-h incubation by liquid-chromatography-coupled mass spectrometry (LC–MS); details: 2 µM
[6] = The drug is tested on Bacteroides ovatus strain: ATCC8483 for biotransformation. The drug concentrations were measured before and after a 12-h incubation by liquid-chromatography-coupled mass spectrometry (LC–MS); details: 2 µM
[7] = The drug is tested on Bacteroides uniformis strain: ATCC8492 for biotransformation. The drug concentrations were measured before and after a 12-h incubation by liquid-chromatography-coupled mass spectrometry (LC–MS); details: 2 µM
[8] = The drug is tested on Bacteroides vulgatus strain: ATCC8482 for biotransformation. The drug concentrations were measured before and after a 12-h incubation by liquid-chromatography-coupled mass spectrometry (LC–MS); details: phocaeicola vulgatus, 2 µM
[9] = The drug is tested on Bacteroides xylanisolvens strain: DSM18836 for biotransformation. The drug concentrations were measured before and after a 12-h incubation by liquid-chromatography-coupled mass spectrometry (LC–MS); details: 2 µM
[10] = The drug is tested on Odoribacter splanchnicus strain: fecal isolate for biotransformation. The drug concentrations were measured before and after a 12-h incubation by liquid-chromatography-coupled mass spectrometry (LC–MS); details: 2 µM
[11] = The drug is tested on Parabacteroides merdae strain: ATCC43184 for biotransformation. The drug concentrations were measured before and after a 12-h incubation by liquid-chromatography-coupled mass spectrometry (LC–MS); details: 2 µM
[12] = The drug is tested on Clostridium sp. strain: fecal isolate for biotransformation. The drug concentrations were measured before and after a 12-h incubation by liquid-chromatography-coupled mass spectrometry (LC–MS); details: 2 µM
[13] = The drug is tested on Eubacterium rectale strain: ATCC33656 for biotransformation. The drug concentrations were measured before and after a 12-h incubation by liquid-chromatography-coupled mass spectrometry (LC–MS); details: agathobacter rectalis, 2 µM
[14] = The drug is tested on Edwardsiella tarda strain: ATCC23685 for biotransformation. The drug concentrations were measured before and after a 12-h incubation by liquid-chromatography-coupled mass spectrometry (LC–MS); details: 2 µM
[15] = bacteroides eggerthii, 12 h, 2 µM
Description: The drug is tested on Bacteroides eggerthii strain: DSM20697 for biotransformation. The drug concentrations were measured before and after a 12-h incubation by liquid-chromatography-coupled mass spectrometry (LC–MS)

[16] = bacteroides fragilis, 12 h, 2 µM
Description: The drug is tested on Bacteroides fragilis strain: NCTC 9343 for biotransformation. The drug concentrations were measured before and after a 12-h incubation by liquid-chromatography-coupled mass spectrometry (LC–MS)

[17] = bacteroides fragilis, 12 h, 2 µM; remark: listed apart in the source
Description: The drug is tested on Bacteroides fragilis strain: DS-208 for biotransformation. The drug concentrations were measured before and after a 12-h incubation by liquid-chromatography-coupled mass spectrometry (LC–MS)

[18] = anaerostipes sp., 12 h, 2 µM
Description: The drug is tested on Anaerostipes sp. strain: fecal isolate for biotransformation. The drug concentrations were measured before and after a 12-h incubation by liquid-chromatography-coupled mass spectrometry (LC–MS)

[19] = The drug is tested on Bacteroides fragilis strain: HMW615 for biotransformation. The drug concentrations were measured before and after a 12-h incubation by liquid-chromatography-coupled mass spectrometry (LC–MS); details: 2 µM

Row | Structure (SMILES) | Bacterial Biotransformation [1] | Bacterial Biotransformation [2] | Bacterial Biotransformation [3] | Bacterial Biotransformation [4] | Bacterial Biotransformation [5] | Bacterial Biotransformation [6] | Bacterial Biotransformation [7] | Bacterial Biotransformation [8] | Bacterial Biotransformation [9] | Bacterial Biotransformation [10] | Bacterial Biotransformation [11] | Bacterial Biotransformation [12] | Bacterial Biotransformation [13] | Bacterial Biotransformation [14] | Bacterial Biotransformation [15] | Bacterial Biotransformation [16] | Bacterial Biotransformation [17] | Bacterial Biotransformation [18] | Bacterial Biotransformation [19]
1 | CSc1ccc2c(c1)C(N1CCN(C)CC1)Cc1ccccc1S2.O=C(O)/C=C\C(=O)O (stereo unspecified) | Compound metabolized | Compound NOT metabolized | Compound NOT metabolized | Compound NOT metabolized | Compound NOT metabolized | Compound NOT metabolized | Compound metabolized | Compound NOT metabolized | Compound NOT metabolized | Compound NOT metabolized | Compound NOT metabolized | Compound NOT metabolized | Compound NOT metabolized | Compound NOT metabolized | Compound NOT metabolized | Compound NOT metabolized | Compound NOT metabolized | Compound metabolized | –
2 | CCCC(=O)Nc1ccc(OCC(O)CNC(C)C)c(C(C)=O)c1 (stereo unspecified) [ACEBUTOLOL] | Compound NOT metabolized | Compound NOT metabolized | – | Compound NOT metabolized | – | Compound NOT metabolized | Compound NOT metabolized | – | Compound NOT metabolized | Compound NOT metabolized | Compound NOT metabolized | – | Compound NOT metabolized | Compound NOT metabolized | Compound NOT metabolized | Compound NOT metabolized | – | Compound NOT metabolized | –
3 | C=CCc1ccccc1OCC(O)CNC(C)C (stereo unspecified) [ALPRENOLOL] | Compound NOT metabolized | Compound NOT metabolized | Compound NOT metabolized | – | – | Compound NOT metabolized | Compound NOT metabolized | Compound NOT metabolized | Compound NOT metabolized | Compound NOT metabolized | Compound NOT metabolized | Compound NOT metabolized | Compound NOT metabolized | Compound NOT metabolized | Compound NOT metabolized | Compound NOT metabolized | Compound NOT metabolized | Compound NOT metabolized | –
4 | CCN1CCCC1CNC(=O)c1cc(S(=O)(=O)CC)c(N)cc1OC (stereo unspecified) [AMISULPRIDE] | Compound NOT metabolized | Compound NOT metabolized | Compound NOT metabolized | Compound NOT metabolized | – | Compound NOT metabolized | Compound NOT metabolized | Compound NOT metabolized | Compound NOT metabolized | Compound NOT metabolized | Compound NOT metabolized | Compound NOT metabolized | Compound NOT metabolized | Compound NOT metabolized | Compound NOT metabolized | Compound NOT metabolized | Compound NOT metabolized | Compound NOT metabolized | Compound NOT metabolized
5 | CCOC(=O)[C@H](CCc1ccccc1)N[C@H]1CCc2ccccc2N(CC(=O)O)C1=O [BENAZEPRIL] | Compound NOT metabolized | – | Compound NOT metabolized | Compound NOT metabolized | Compound metabolized | Compound metabolized | Compound metabolized | Compound metabolized | Compound metabolized | Compound metabolized | Compound metabolized | Compound NOT metabolized | Compound NOT metabolized | Compound NOT metabolized | Compound metabolized | Compound NOT metabolized | Compound metabolized | Compound NOT metabolized | Compound metabolized
6 | CC(C)NCC(O)COc1ccc(CCOCC2CC2)cc1 (stereo unspecified) [BETAXOLOL] | Compound NOT metabolized | Compound NOT metabolized | Compound NOT metabolized | – | Compound NOT metabolized | Compound NOT metabolized | Compound NOT metabolized | – | – | Compound NOT metabolized | Compound NOT metabolized | Compound NOT metabolized | Compound NOT metabolized | Compound NOT metabolized | Compound NOT metabolized | Compound NOT metabolized | Compound NOT metabolized | Compound NOT metabolized | Compound NOT metabolized
7 | CC(C)NCC(O)COc1ccc(COCCOC(C)C)cc1.CC(C)NCC(O)COc1ccc(COCCOC(C)C)cc1.O=C(O)/C=C/C(=O)O (stereo unspecified) [BISOPROLOL FUMARATE] | Compound NOT metabolized | – | Compound NOT metabolized | Compound NOT metabolized | Compound NOT metabolized | Compound NOT metabolized | – | Compound NOT metabolized | Compound NOT metabolized | Compound NOT metabolized | Compound NOT metabolized | Compound NOT metabolized | Compound NOT metabolized | Compound NOT metabolized | Compound NOT metabolized | Compound NOT metabolized | Compound NOT metabolized | Compound NOT metabolized | Compound NOT metabolized
8 | Br.CN(C)CCCC1(c2ccc(F)cc2)OCc2cc(C#N)ccc21 (stereo unspecified) [CITALOPRAM HYDROBROMIDE] | Compound NOT metabolized | Compound NOT metabolized | Compound NOT metabolized | – | Compound NOT metabolized | Compound NOT metabolized | – | Compound NOT metabolized | – | – | Compound NOT metabolized | Compound NOT metabolized | Compound NOT metabolized | Compound NOT metabolized | Compound NOT metabolized | Compound NOT metabolized | Compound NOT metabolized | Compound NOT metabolized | Compound NOT metabolized
